Where two headings read alike, the source gives them in different places.
Legend:
OR51E1 [1] = target: T1, OR51E1 (Homo sapiens, UniProt Q8TCB6); conditions: another study and a more recent study; cited from earlier work
T1 sequence (Q8TCB6 1-318): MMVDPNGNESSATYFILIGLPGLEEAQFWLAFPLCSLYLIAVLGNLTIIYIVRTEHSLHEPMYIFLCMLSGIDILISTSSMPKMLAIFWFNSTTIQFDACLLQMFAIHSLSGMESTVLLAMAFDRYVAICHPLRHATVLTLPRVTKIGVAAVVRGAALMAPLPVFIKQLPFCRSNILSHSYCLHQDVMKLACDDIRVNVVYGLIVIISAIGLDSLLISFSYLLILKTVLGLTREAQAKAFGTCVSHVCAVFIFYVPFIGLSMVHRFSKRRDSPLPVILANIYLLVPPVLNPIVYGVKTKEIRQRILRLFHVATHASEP

Olfr78 [2] = target: T2, Olfr78 (Mus musculus, UniProt Q8VBV9); conditions: cited from earlier work
T2 construct: host or cells: HEK293T
T2 sequence (Q8VBV9 1-320): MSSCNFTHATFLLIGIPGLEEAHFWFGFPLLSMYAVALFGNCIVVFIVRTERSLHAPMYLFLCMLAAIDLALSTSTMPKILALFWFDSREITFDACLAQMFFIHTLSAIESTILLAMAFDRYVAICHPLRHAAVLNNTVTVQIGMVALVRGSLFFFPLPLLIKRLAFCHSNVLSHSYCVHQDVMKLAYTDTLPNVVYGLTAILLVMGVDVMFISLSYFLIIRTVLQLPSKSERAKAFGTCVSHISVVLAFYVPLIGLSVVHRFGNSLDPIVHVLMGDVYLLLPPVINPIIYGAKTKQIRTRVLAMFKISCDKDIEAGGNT

OR51E2 [3] = target: T3, OR51E2 (Homo sapiens, UniProt Q9H255); conditions: cited from earlier work
T3 construct: host or cells: HEK293T
T3 sequence (Q9H255 1-320): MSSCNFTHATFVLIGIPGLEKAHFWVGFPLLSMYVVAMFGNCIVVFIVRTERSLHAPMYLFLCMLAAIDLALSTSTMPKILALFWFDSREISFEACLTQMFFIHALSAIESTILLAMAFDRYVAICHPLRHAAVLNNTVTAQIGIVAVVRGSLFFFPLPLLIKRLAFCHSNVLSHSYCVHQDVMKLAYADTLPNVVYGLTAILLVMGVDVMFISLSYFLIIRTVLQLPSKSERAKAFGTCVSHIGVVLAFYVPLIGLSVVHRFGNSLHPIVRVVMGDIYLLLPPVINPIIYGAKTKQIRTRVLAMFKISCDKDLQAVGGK

Olfr78 [4] = target: T2, Olfr78; assay: Luciferase dual reporter assay of Olfr78 expressed in HEK293T cells; format: cell-based
From the text: pCl-Rho-Olfr78 plasmid construction and expression. The pCl-Rho-Olfr78 plasmid was made by PCR amplifying the Olfr78 coding region from a pCMV6-Olfr78 plasmid (OriGene) using forward primer 5′-[…]-3′ and reverse primer 5′-[…]-3′, adding EcoR1 and Not1 restriction sites. The Olfr78 PCR fragment was then digested with EcoR1 and Not1 and cloned into a pCl-Rho backbone cut from a pCl-Rho-Olfr62 plasmid (gift of Hiroaki Matsunami, Duke University). […] Cytoplasmic GFP (co-transfection marker) was expressed from a TBC1 D25::eGFP plasmid (gift of Suzanne Pfeffer, Stanford University).
Luciferase assay. HEK293T cells were grown and seeded into 96 well plates. On the next day, cells were transfected with RTP1S, Gα15-olf (gifts of Hiroaki Matsunami, Duke University), pCMV6-Ric8b (Origene), pCRE-Luc (Agilent), and pSV40-RL (Promega) plasmids and either pCl-Rho-Olfr78 or pCl (Promega). The Rho tag on Olfr78 and RTP1S were used to enhance localization of Olfr78 to the plasma membrane. Gα15-olf and Ric8b were included as downstream effectors that couple to ORs to increase cAMP production upon OR activation. Two transcriptional luciferase reporters, one constitutive (Renilla, pSV40-RL) and one inducible by cAMP (firefly, pCRE-Luc) were transfected to report increased cAMP levels upon OR activation.
Five hours after transfection, media was decanted and replaced with 50 μL/well MEM without phenol red (Life Technologies). After thirty minutes, 25 μL of chemicals were added to each well to achieve the indicated final concentrations, and cells were incubated for 2 hours. Sodium salts of chloride, L-lactate, propionate, and acetate (Sigma) were used.
Reagents to detect firefly and Renilla luciferase activity (Dual-Glo Luciferase Assay System, Promega) were added at 20 μl/well. Luminescence was measured using an Infinite M1000 (Tecan) microplate reader and data acquired by Magellan Data Analysis Software (Tecan). Two readings were collected for each plate and luciferase reagent, and firefly to Renilla ratios were averaged. Data was from experiments conducted over three days. For dose response curves in FIG. 4a and FIGS. 11d-f, ratios were normalized to the highest and lowest average values for a given condition across all plates on each day.
Data analysis and statistics. Data analysis and statistical tests were performed using Microsoft Excel and GraphPad software. GraphPad Prism 6 was used to fit dose-response curves using a variable slope model and to calculate EC50 values. All data are biological replicates, and quantitative data with error bars are presented as mean±standard error of the mean (s.e.m.) with the exception of FIG. 11c, which is presented as percent±standard error of percentage. […] No statistical method was used to predetermine sample size.

carotid body = assay: Carotid sinus nerve recordings (carotid body sensory activity); parameters: species or system mouse; conditions: 30 mM, PO2=625 mmHg; for Carotid sinus nerve activity, Olfr78-/- mutants: Olfr78-/- mutant nerves; for Carotid sinus nerve activity, Olfr78+/+: wild-type Olfr78+/+ preparations
OR51E2 [5] = target: T3, OR51E2; conditions: screen of 93 named compounds; cited from earlier work
OR51E1 [6] = target: T1, OR51E1; conditions: screen of 93 named compounds; cited from earlier work
[7] = tested on: carotid body glomus cells; assay: Calcium imaging of GCaMP3-expressing carotid body glomus cells; format: cell-based, mouse; conditions: lactate 30 mM, cyanide 2 mM; whole carotid bodies and slice preparations; hyperoxia
Olfr558 = Olfr558 (Mus musculus, UniProt Q8VGZ7); conditions: screen of 93 named compounds; cited from earlier work
[8] = heterologous expression in HEK293T cells, same range of concentrations
[9] = study looking at Olfr78 and OR51E2

Sequence of Olfr558 (Q8VGZ7 entry or part of it): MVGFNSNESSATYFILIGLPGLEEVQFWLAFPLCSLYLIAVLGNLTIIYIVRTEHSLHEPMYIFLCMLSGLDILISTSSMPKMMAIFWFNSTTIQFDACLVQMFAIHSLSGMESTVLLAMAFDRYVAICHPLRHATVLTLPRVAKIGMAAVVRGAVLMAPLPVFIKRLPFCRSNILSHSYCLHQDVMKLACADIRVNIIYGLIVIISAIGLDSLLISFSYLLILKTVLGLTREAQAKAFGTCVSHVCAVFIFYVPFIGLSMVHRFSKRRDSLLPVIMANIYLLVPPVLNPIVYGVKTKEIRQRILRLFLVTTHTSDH

SMILES | Agonist activity at OR51E1 (OR51E1 [1]) | Activation of Olfr78 (in words) (Olfr78 [4]; [8]) | Carotid sinus nerve activity, Olfr78-/- mutants (carotid body) | Carotid sinus nerve activity, Olfr78+/+ (carotid body) | also measured
CC(C)CC(=O)O [isovaleric acid] | activated | – | – | – | –
O=CO [formate] | – | – | – | – | Agonist activity at Olfr78 (Olfr78 [2]): not; Agonist activity at OR51E2 (OR51E2 [3]): not
CC(=O)O [acetate] | – | stimulated Olfr78 | little effect | stimulate carotid sinus nerve activity | Agonist activity at Olfr78 (Olfr78 [2]; [9]): agonists; Agonist activity at OR51E2 (OR51E2 [3]; [9]): agonists
CCC(=O)O [propionate, propionic acid] | activated | stimulated Olfr78 | little effect | stimulate carotid sinus nerve activity | Agonist activity at Olfr78 (Olfr78 [2]; [9]): agonists; Agonist activity at OR51E2 (OR51E2 [3]; [9]): agonists; Agonist activity at OR51E2 in chemical screen (OR51E2 [5]): specifically activated
CCCCOC(=O)C(C)OC(=O)CCC (stereo not drawn) [butyl butylryllactate] | – | – | – | – | Agonist activity at OR51E1 in chemical screen (OR51E1 [6]): activated
CCC(C)CC(=O)O (stereo not drawn) [3-methyl-valeric acid] | agonists | – | – | – | –
CC(O)C(=O)O (stereo not drawn) [lactate, 2-hydroxypropanoic acid] | – | activated Olfr78 in a dose-dependent manner | little response | increased carotid sinus nerve activity | EC50 (Olfr78 [4]; heterologous expression in HEK293T cells, sodium salts, 2 hours stimulation, read-out: EC50 for activation of Olfr78): 4 mM; Calcium response of glomus cells [7]: induced calcium transients
Cl [Chloride ion, chloride] | – | – | – | – | Activation of Olfr78 (in words) (Olfr78 [4]): no effect
CCCCCCCCC(=O)O [nonanoic acid] | activated | – | – | – | Agonist activity at OR51E1 in chemical screen (OR51E1 [6]): activated; Agonist activity at Olfr558 in chemical screen (Olfr558): activated
CC(C)CCC(=O)O [4-methyl-valeric acid] | agonists | – | – | – | –

From patent US20170100353A1, “COMPOSITIONS AND METHODS THAT TARGET OLFACTORY RECEPTORS FOR REGULATION OF BREATHING” (The Board of Trustees of the Leland Stanford Junio, priority 2015, published 2017)
